Assay results published in US12404285B2, “KRAS G12D proteolysis targeting chimeras” (PAQ Therapeutics Inc., priority 2022, dated 2025).

Target: T1, KRAS in AGS cells (KRAS G12D mutant cell line) or LS180 cells (KRAS G12D mutant cell line) (Homo sapiens, UniProt P01116, G12D)
T1 construct: CRL-187 (LS180) (so in the source); host or cells: AGS or LS180 cells
Test: KRAS Western Blot (WB) assay
Format: cell-based
Settings: KRAS degradation, 24 hours incubation, normalized to β-actin
Protocol: Day 1. Seeded AGS cells (KRAS G12D mutant cell line, ATCC, CRL-1739) or LS180 cells (KRAS G12D mutant cell line, ATCC, CRL-187) into 6-well plates (cell density: 3×10^5 cells/well/2 ml medium) in Ham's F-12 medium (Invitrogen, 11765-054) or Eagle's Minimum Essential Medium (ATCC, 30-2003) and incubated overnight at 37° C. and 5% CO2.
Day 2. Aspirated 1 ml medium from each well and added 1 ml medium containing DMSO or test compound into the well to achieve the desired final concentration. Mixed well by gentle shaking and incubated for 24 hours.
Day 3. Aspirated media from plates; washed cells with 2 ml 4° C. PBS (Solarbio, P1020-500) and aspirated the PBS. Then added 100 μl 4° C. […] lysis buffer (Boston BioProducts BP-115D) with protease and phosphatase inhibitors at vendor recommended concentrations (Roche 05892791001 and 04906837001) into each well to lyse the cells, and incubated for 20 minutes at 4° C. Cell lysate was collected into 1.5 ml Eppendorf tube, and the lysate was sonicated at 4° C. for 2 minutes (5 second pulse at 30% power with 10 second intermissions). The lysate was centrifuged at 12,000 rpm for 15 minutes at 4° C. The supernatant was transferred to a fresh Eppendorf tube, and protein concentration was quantified using a BCA kit (Solarbio, PC0020-500). Mixed the cell lysate and 5×NuPAGE SDS Loading Buffer (Beyotime, P0015L), and heated at 95° C. for 10 minutes in a heat block. Prepared samples were stored at −80° C. until SDS-PAGE procedure.
Day 4. Loaded 15 μg protein from each sample onto NuPAGE® Novex 4-12% Bis-Tris Midi Gel, 26 W (Invitrogen, WG1403BOX) and ran the gel at 120V for 1.5 hours in 1×NuPAGE® MOPS SDS Running Buffer (Novex, NP0001). Electrotransferred to nitrocellulose membrane using dry transfer method (iBlot 2 Transfer Stacks, nitrocellulose, IB23001) with a program consisting of 20V for 1 minute, 23V for 4 minutes and 25V for 2 minutes. Blocked the membrane with 5% BSA (Solarbio, A8020) in 1×TBST (CST, 9997S) for 1 hour at room temperature. Incubated with KRAS antibody (LSBio, LS-C175665, clone 2C1) at 1:1000 dilution and β-actin antibody at 1:1000 dilution (CST, 4970S) in TBST containing 1% BSA (Solarbio, A8020) at 4° C. overnight.
Day 5. Washed nitrocellulose membrane three times with 1×TBST for 10 minutes each at room temperature. Incubated with fluorescently labeled secondary antibodies at 1:5000 dilution in TBST containing 1% BSA (anti-rabbit IgG, Licor, 926-32211; anti-mouse IgG, LI-COR, 926-68070) for 1 hour at room temperature. Washed membrane three times with TBST, 10 minutes each. Scanned the membrane on LiCOR scanner for fluorescent signal(s) and quantified KRAS bands and β-actin bands for normalization.
The data are reported in Table 2, wherein “A” indicates a DC50 of less than 1 μM; “B” indicates a DC50 of greater than or equal to 1 μM and less than 10 μM; and “C” indicates a DC50 of greater than or equal to 10 μM.

T1 sequence (P01116 1-188 isoform P01116-2 G12D): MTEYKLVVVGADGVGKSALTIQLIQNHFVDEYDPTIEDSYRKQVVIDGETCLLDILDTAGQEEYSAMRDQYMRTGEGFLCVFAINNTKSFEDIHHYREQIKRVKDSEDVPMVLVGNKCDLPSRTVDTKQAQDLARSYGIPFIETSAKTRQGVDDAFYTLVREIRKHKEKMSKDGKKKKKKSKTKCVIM

SMILES	DC50
C#Cc1c(F)ccc2cc(O)cc(-c3ncc4c(N5CC6CCC(C5)N6)nc(OC[C@@]56CCCN5[C@H](COC(=O)NCCCc5cccc7c5n(C)c(=O)n7C5CCC(=O)NC5=O)CC6)nc4c3F)c12 (stereo partly drawn) [Compound 003, [(3S,8S)-8-[[4-(3,8-diazabicyclo[3.2.1]octan-3-yl)-7-(8-ethynyl-7-fluoro-3-hydroxy-1-naphthyl)-8-fluoro-pyrido[4,3-d]pyrimidin-2-yl]oxymethyl]-1,2,3,5,6,7-hexahydropyrrolizin-3-yl]methylN-[3-[1-(2,6-dioxo-3-piperidyl)-3-methyl-2-oxo-benzimidazol-4-yl]propyl]carbamate]	C (DC50 greater than or equal to 10 μM)
C#Cc1c(F)ccc2cc(O)cc(-c3ncc4c(N5CC6CCC(C5)N6)nc(OC[C@@]56CCCN5[C@H](COC(=O)NCCCc5ccc7c(c5)n(C)c(=O)n7C5CCC(=O)NC5=O)CC6)nc4c3F)c12 (stereo partly drawn) [Compound 001, [(3S,8S)-8-[[4-(3,8-diazabicyclo[3.2.1]octan-3-yl)-7-(8-ethynyl-7-fluoro-3-hydroxy-1-naphthyl)-8-fluoro-pyrido[4,3-d]pyrimidin-2-yl]oxymethyl]-1,2,3,5,6,7-hexahydropyrrolizin-3-yl]methyl N-[3-[1-(2,6-dioxo-3-piperidyl)-3-methyl-2-oxo-benzimidazol-5-yl]propyl]carbamate]	C (DC50 greater than or equal to 10 μM)
C#Cc1c(F)ccc2cc(O)cc(-c3ncc4c(N5CC6CCC(C5)N6)nc(OC[C@]56CCCN5[C@@H](COC(=O)NCCOCCOCCNc5cccc7c5C(=O)N(C5CCC(=O)NC5=O)C7=O)CC6)nc4c3F)c12 (some centres unmarked) [Compound 025]	C (DC50 greater than or equal to 10 μM)
C#Cc1c(F)ccc2cc(O)cc(-c3ncc4c(N5CC6CCC(C5)N6)nc(OCC56CCCN5[C@H](COC(=O)NCCCCCCCCCNc5cccc7c5C(=O)N(C5CCC(=O)NC5=O)C7=O)CC6)nc4c3F)c12 (mixture of isomers) [Compound 023, (3RS,8RS)-[8-[[4-(3,8-Diazabicyclo[3.2.1]octan-3-yl)-7-(8-ethynyl-7-fluoro-3-hydroxy-1-naphthyl)-8-fluoro-pyrido[4,3-d]pyrimidin-2-yl]oxymethyl]-1,2,3,5,6,7-hexahydropyrrolizin-3-yl]methyl N-[9-[[2-(2,6-dioxo-3-piperidyl)-1,3-dioxo-isoindolin-4-yl]amino]nonyl]carbamate]	A (DC50 less than 1 μM)
C#Cc1c(F)ccc2cc(O)cc(-c3ncc4c(N5CC6CCC(C5)N6)nc(OC[C@@]56CCCN5[C@H](COC(=O)NCCCCCCNc5ccc7c(c5)C(=O)N(C5CCC(=O)NC5=O)C7=O)CC6)nc4c3F)c12 (stereo partly drawn) [Compound 017, [(3S,8S)-8-[[4-(3,8-diazabicyclo[3.2.1]octan-3-yl)-7-(8-ethynyl-7-fluoro-3-hydroxy-1-naphthyl)-8-fluoro-pyrido[4,3-d]pyrimidin-2-yl]oxymethyl]-1,2,3,5,6,7-hexahydropyrrolizin-3-yl]methyl N-[6-[[2-(2,6-dioxo-3-piperidyl)-1,3-dioxo-isoindolin-5-yl]amino]hexyl]carbamate]	B (DC50 greater than or equal to 1 μM and less than 10 μM)
C#Cc1c(F)ccc2cc(O)cc(-c3ncc4c(N5CC6CCC(C5)N6)nc(OC[C@@]56CCCN5[C@H](COC(=O)NCCOCCOCCOCCNc5cccc7c5C(=O)N(C5CCC(=O)NC5=O)C7=O)CC6)nc4c3F)c12 (stereo partly drawn) [Compound 028, [(3S,8S)-8-[[4-(3,8-diazabicyclo[3.2.1]octan-3-yl)-7-(8-ethynyl-7-fluoro-3-hydroxy-1-naphthyl)-8-fluoro-pyrido[4,3-d]pyrimidin-2-yl]oxymethyl]-1,2,3,5,6,7-hexahydropyrrolizin-3-yl]methylN-[2-[2-[2-[2-[[2-(2,6-dioxo-3-piperidyl)-1,3-dioxo-isoindolin-4-yl]amino]ethoxy]ethoxy]ethoxy]ethyl]carbamate]	C (DC50 greater than or equal to 10 μM)
C#Cc1c(F)ccc2cc(O)cc(-c3ncc4c(N5C[C@H]6CC[C@@H](C5)N6)nc(OC[C@@]56CCCN5[C@H](COC(=O)NCCCCc5cccc7c5n(C)c(=O)n7C5CCC(=O)NC5=O)CC6)nc4c3F)c12 (stereo partly drawn) [Compound 008, ((3S,7aS)-7a-(((4-((1R,5S)-3,8-diazabicyclo[3.2.1]octan-3-yl)-7-(8-ethynyl-7-fluoro-3-hydroxynaphthalen-1-yl)-8-fluoropyrido[4,3-d]pyrimidin-2-yl)oxy)methyl)hexahydro-1H-pyrrolizin-3-yl)methyl (4-(1-(2,6-dioxopiperidin-3-yl)-3-methyl-2-oxo-2,3-dihydro-1H-benzo[d]imidazol-4-yl)butyl)carbamate]	B (DC50 greater than or equal to 1 μM and less than 10 μM)
C#Cc1c(F)ccc2cc(O)cc(-c3ncc4c(N5CC6CCC(C5)N6)nc(OC[C@@]56CCCN5[C@H](COC(=O)NCCc5cccc7c5n(C)c(=O)n7C5CCC(=O)NC5=O)CC6)nc4c3F)c12 (stereo partly drawn) [Compound 004, [(3S,8S)-8-[[4-(3,8-diazabicyclo[3.2.1]octan-3-yl)-7-(8-ethynyl-7-fluoro-3-hydroxy-1-naphthyl)-8-fluoro-pyrido[4,3-d]pyrimidin-2-yl]oxymethyl]-1,2,3,5,6,7-hexahydropyrrolizin-3-yl]methyl N-[2-[1-(2,6-dioxo-3-piperidyl)-3-methyl-2-oxo-benzimidazol-4-yl]ethyl]carbamate]	C (DC50 greater than or equal to 10 μM)
C#Cc1c(F)ccc2cc(O)cc(-c3ncc4c(N5CC6CCC(C5)N6)nc(OC[C@@]56CCCN5[C@H](COC(=O)NCCCCCCCCCCNc5ccc7c(c5)C(=O)N(C5CCC(=O)NC5=O)C7=O)CC6)nc4c3F)c12 (stereo partly drawn) [Compound 015, [(3S,8S)-8-[[4-(3,8-diazabicyclo[3.2.1]octan-3-yl)-7-(8-ethynyl-7-fluoro-3-hydroxy-1-naphthyl)-8-fluoro-pyrido[4,3-d]pyrimidin-2-yl]oxymethyl]-1,2,3,5,6,7-hexahydropyrrolizin-3-yl]methyl N-[10-[[2-(2,6-dioxo-3-piperidyl)-1,3-dioxo-isoindolin-5-yl]amino]decyl]carbamate]	A (DC50 less than 1 μM)
C#Cc1c(F)ccc2cc(O)cc(-c3ncc4c(N5C[C@H]6CC[C@@H](C5)N6)nc(OC[C@@]56CCCN5[C@H](COC(=O)NCCCCc5ccc7c(c5)n(C)c(=O)n7C5CCC(=O)NC5=O)CC6)nc4c3F)c12 (stereo partly drawn) [Compound 006, ((3S,7aS)-7a-(((4-((1R,5S)-3,8-diazabicyclo[3.2.1]octan-3-yl)-7-(8-ethynyl-7-fluoro-3-hydroxynaphthalen-1-yl)-8-fluoropyrido[4,3-d]pyrimidin-2-yl)oxy)methyl)hexahydro-1H-pyrrolizin-3-yl)methyl (4-(1-(2,6-dioxopiperidin-3-yl)-3-methyl-2-oxo-2,3-dihydro-1H-benzo[d]imidazol-5-yl)butyl)carbamate]	C (DC50 greater than or equal to 10 μM)
C#Cc1c(F)ccc2cc(O)cc(-c3ncc4c(N5CC6CCC(C5)N6)nc(OC[C@@]56CCCN5[C@H](COC(=O)NCCOCCOCCOCCNc5cccc7c5C(=O)N(C5CCC(=O)NC5=O)C7=O)CC6)nc4c3F)c12 (stereo partly drawn) [Compound 027, [(3R,8R)-8-[[4-(3,8-diazabicyclo[3.2.1]octan-3-yl)-7-(8-ethynyl-7-fluoro-3-hydroxy-1-naphthyl)-8-fluoro-pyrido[4,3-d]pyrimidin-2-yl]oxymethyl]-1,2,3,5,6,7-hexahydropyrrolizin-3-yl]methyl N-[2-[2-[2-[2-[[2-(2,6-dioxo-3-piperidyl)-1,3-dioxo-isoindolin-4-yl]amino]ethoxy]ethoxy]ethoxy]ethyl]carbamate]	C (DC50 greater than or equal to 10 μM)
